Measurements published in paper PMC4741889, “Ligand-based chemoinformatic discovery of a novel small molecule inhibitor targeting CDC25 dual specificity phosphatases and displaying in vitro efficacy against melanoma cells” (Oncotarget, 2015).

Tests used:
SAN cells = assay: Intracellular ROS level (DCFH-DA), SAN cells; type: cell-based, human; conditions: SAN, then 100 μM 7 for 4 h
Procedure: The high redox reactivity of quinonoid molecules, like compound 7, could greatly perturb the intracellular redox state. […] The oxidant effect of 7 was also evaluated after cell pre-treatment with two antioxidant molecules, such as N-acetyl-cysteine (NAC) and the specific inhibitor of NADPH oxidase, apocynin. To this aim, A2058 and SAN cells were pre-incubated for 1 h with 10 mM NAC or 45 min with 0.5 mM apocynin and then treated for 4 h with 100 μM compound 7. […] The cytotoxic activity of 7 could be mediated by the observed increase of ROS level.
The intracellular ROS level was monitored using the oxidation-sensitive fluorescence probe DCFH-DA. Cells were seeded into 6-well-plates (3 × 10^5 cells/plate) for 24 h at 37°C and then treated at various times with 100 μM compound 7 or 0.5% DMSO. DCFH-DA was added in the dark at 10 μM final concentration 30-min before the end of each incubation; then, cells were collected, washed in PBS, and finally resuspended in 500 μL PBS for fluorimetric analysis. Measurements were realized in a Cary Eclipse fluorescence spectrophotometer (Varian); excitation and emission wavelengths were set at 485 nm and 530 nm, respectively; both excitation and emission slits were set at 10 nm. The effect of 7 on ROS production was also estimated after pretreatment of cells with 10 mM NAC for 1 h.
Supplementary Figure S5: ROS production and their involvement in the apoptotic process of SAN cells, as induced by treatment with compound 7. A. Time-dependent measurement of ROS production. Cells were incubated with 0.5% DMSO (open bars) or 100 μM compound 7 (black bars) and then the intracellular ROS level was measured. B. Effect of antioxidant molecules on ROS production. The ROS level was also measured in cells untreated or pretreated with NAC or apocynin after a 4-h incubation with DMSO or 7. C. Effect of NAC on apoptosis. The PI incorporation was evaluated in cells untreated or pretreated with NAC after a 48-h incubation with DMSO or 7. ROS production was expressed as a.u., and apoptosis as a percentage. […]

caspase-9 activity = assay: Caspase-9 enzymatic activity in A2058 cells; type: cell-based, human; conditions: A2058, 100 μM, 24 h
Procedure: Mitochondria represent the primary source of ROS, as well the target of ROS action, and therefore, compound 7 could affect their functionality in melanoma cells. […] Proteins belonging to the B-cell lymphoma-2 (Bcl-2) family are involved in the modulation of the mitochondrial functionality. Therefore, we have evaluated the levels of the anti-apoptotic protein Bcl-2, as well as that of the pro-apoptotic Bcl-2-associated X protein (Bax), after incubation with 7 (Figure 10B). […] To further investigate the occurrence of a mitochondrial-mediated apoptosis induced by 7, the caspase-9 activity was assayed. […] The effect of compound 7 was investigated also in SAN cells and the overall results were similar to those observed in A2058 (Supplementary Figure S6).
To estimate caspase-3 and caspase-9 activity during the treatment with compound 7, the respective enzymatic activities were measured by using caspase-3 and -9 fluorimetric assay kits, according to the manufacturer's protocol, essentially as previously described. Briefly, cells were seeded into 75 cm^2 plates (2 × 10^6 cells/plate) for 24 h at 37°C and then treated with 100 μM 7 or 0.5% DMSO. […] Cell lysates were incubated with 50 μM DEVD-AFC or LEHD-AFC substrates at 37°C for 2 h, to detect caspase-3 or caspase-9 activity, respectively, using a Cary Eclipse fluorescence spectrophotometer (Varian). […]

CDC25B = biological target: T1, CDC25B (Homo sapiens, UniProt P30305); assay: Residual phosphatase activity of recombinant CDC25B, fluorimetric OMFP assay; type: biochemical; conditions: 10 nM CDC25B, 25 μM OMFP, read-out: CDC25B residual activity (%) in the presence of [inhibitor]
T1 construct: Recombinant forms of the catalytic domains of CDC25A, -B and -C were obtained through the vectors pET28a-CDC25A-cd, pET28a-CDC25B-cd and pET28a-CDC25C-cd; made in house
T1 sequence (P30305 431-538 limits assumed): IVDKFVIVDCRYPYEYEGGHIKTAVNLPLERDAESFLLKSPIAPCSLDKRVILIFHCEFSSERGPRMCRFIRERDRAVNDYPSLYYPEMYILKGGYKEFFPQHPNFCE
Procedure: Among the twenty-five structures identified from the multiple ligand-based chemoinformatic approach, eight compounds (2, 10, 12–14, and 16–18) were excluded from the analysis, because endowed with a strong fluorescent signal, which interfered with the emission wavelength of the synthetic substrate 3-O-methylfluorescein phosphate (OMFP) used in the fluorimetric assay. The inhibition of the phosphatase activity of CDC25B by the remaining seventeen analogs was evaluated in the presence of two different concentrations of these compounds (Table 2). […] For this reason, only one of these latter compounds, i.e. 3, was included in the following analysis.
The enzymatic activity of the catalytic domains of CDC25A, -B and -C were determined through a fluorimetric method, which monitored the dephosphorylation of the synthetic substrate OMFP, essentially as previously described. In steady-state enzyme kinetic studies, the residual phosphatase activity of purified recombinant CDC25B was measured at 30°C in the presence of different concentrations of the various inhibitors, using a computer-assisted Cary Eclipse spectrofluorimeter (Varian) equipped with an electronic temperature controller. Excitation and emission wavelengths were set at 485 and 530 nm, respectively; both excitation and emission slits were set at 10 nm. The reaction mixture contained 10 nM CDC25B and different concentrations of the various inhibitors in 500 μL final volume of 20 mM Tris-HCl, pH 7.8, 1 mM DTT. DMSO was used as vehicle control. The reaction started by the addition of 25 μM OMFP, and the formation of the fluorescent product o-methylfluorescein was monitored continuously. The rate of OMFP hydrolysis was expressed as arbitrary units per min (a.u./min). The comparison of the rates determined in the absence and in the presence of the various inhibitors allowed the calculation of the residual phosphatase activity, expressed as a percentage.

remaining activity at 0.2 µM (CDC25B; 0.2 μM inhibitor): 44% | remaining activity at 1 µM (CDC25B; 1 μM inhibitor): 1%
Structure (SMILES): O=C(O)C1CCCCC1c1c2ccc(=O)cc-2oc2cc(O)ccc12 (centres unmarked) [Compound 7, 2-(6-hydroxy-3-oxo-3H-xanthen-9-yl)cyclohexanecarboxylic acid]
increase of ROS level after apocynin pre-treatment (SAN cells; 0.5 mM apocynin 45 min): did not prevent the increase of ROS level | increase of ROS level after NAC pre-treatment (SAN cells; 10 mM NAC 1 h): prevented by the NAC treatment | caspase-9 activity (caspase-9 activity): clear increase of caspase-9 activity
